Reference: the NIST ThermoML archive (doi:10.1021/je060419q)
Numbers after ± are expanded uncertainties.

Conditions: Transpiration method

CC(O)CCO (stereo not drawn) [1,3-butanediol]
Liquid
Conditions	vapor or sublimation pressure [kPa]
288.3 K	0.00139 ± 0.0001
290.3 K	0.00168 ± 0.00012
292.9 K	0.00235 ± 0.00017
303.5 K	0.00651 ± 0.00046
308.3 K	0.00994 ± 0.00071
311.3 K	0.01301 ± 0.00094
314.3 K	0.01723 ± 0.0012
317.3 K	0.02182 ± 0.0016
320.3 K	0.02852 ± 0.0021
323.3 K	0.03664 ± 0.0026
326.3 K	0.04618 ± 0.0033
329.3 K	0.05855 ± 0.0042
332.3 K	0.07427 ± 0.0053

CC(C)(CO)CO [2,2-dimethyl-1,3-propanediol]
Conditions	vapor or sublimation pressure [kPa]
283.9 K, Crystal 2	0.00029 ± 2e-05
288.5 K, Crystal 2	0.00052 ± 4e-05
291.2 K, Crystal 2	0.00074 ± 6e-05
295.2 K, Crystal 2	0.00119 ± 9e-05
298.4 K, Crystal 2	0.00174 ± 0.00013
301.7 K, Crystal 2	0.00261 ± 0.00019
304.7 K, Crystal 2	0.00367 ± 0.00027
307.9 K, Crystal 2	0.00535 ± 0.00039
309.4 K, Crystal 2	0.00615 ± 0.00044
311.3 K, Crystal 2	0.00735 ± 0.00053
314.3 K, Crystal 1	0.01057 ± 0.00077
317.3 K, Crystal 1	0.01416 ± 0.001
320.2 K, Crystal 1	0.01849 ± 0.0013
323.4 K, Crystal 1	0.02447 ± 0.0018
326.4 K, Crystal 1	0.03147 ± 0.0023
329.4 K, Crystal 1	0.04056 ± 0.0029
332.3 K, Crystal 1	0.05153 ± 0.0037
335.3 K, Crystal 1	0.06721 ± 0.0048
338.2 K, Crystal 1	0.08442 ± 0.006
341.2 K, Crystal 1	0.1056 ± 0.0075
344.2 K, Crystal 1	0.1314 ± 0.0094
347.2 K, Crystal 1	0.1654 ± 0.012

CC(O)CC(C)O (stereo not drawn) [2,4-pentanediol]
Liquid
Conditions	vapor or sublimation pressure [kPa]
297.2 K	0.0048 ± 0.00035
300.2 K	0.00645 ± 0.00047
303.2 K	0.0085 ± 0.00061
306.2 K	0.0111 ± 0.0008
309.2 K	0.01453 ± 0.001
312.2 K	0.01892 ± 0.0014
315.3 K	0.0239 ± 0.0017
318.4 K	0.03119 ± 0.0022
321.4 K	0.04095 ± 0.003
324.4 K	0.05507 ± 0.004
327.5 K	0.07024 ± 0.005
330.5 K	0.08735 ± 0.0062
333.4 K	0.1096 ± 0.0078
336.5 K	0.1376 ± 0.0098
339.2 K	0.1648 ± 0.012
344.4 K	0.2419 ± 0.017
347.3 K	0.2929 ± 0.021

CC(CO)CO [2-methyl-1,3-propanediol]
Liquid
Conditions	vapor or sublimation pressure [kPa]
297.3 K	0.00204 ± 0.00015
300.4 K	0.00285 ± 0.00021
303.4 K	0.00364 ± 0.00026
306.4 K	0.0049 ± 0.00036
309.4 K	0.00661 ± 0.00048
312.4 K	0.00841 ± 0.0006
312.5 K	0.00861 ± 0.00061
314.5 K	0.00996 ± 0.00072
316.4 K	0.01205 ± 0.00086
318.5 K	0.0141 ± 0.001
319.5 K	0.01551 ± 0.0011
321.4 K	0.01842 ± 0.0013
322.5 K	0.01984 ± 0.0014
323.5 K	0.02169 ± 0.0015
323.6 K	0.02202 ± 0.0016
326.4 K	0.02689 ± 0.0019
326.6 K	0.02817 ± 0.002
328.5 K	0.03259 ± 0.0023
328.6 K	0.03396 ± 0.0024
331.4 K	0.04115 ± 0.0029
333.4 K	0.0469 ± 0.0034
336.3 K	0.05931 ± 0.0043
338.6 K	0.07262 ± 0.0052
341.4 K	0.08656 ± 0.0061
342.6 K	0.09448 ± 0.0069
343.5 K	0.1068 ± 0.0079
347.6 K	0.1379 ± 0.0098
349.3 K	0.1589 ± 0.011
352.5 K	0.1921 ± 0.014
355.4 K	0.2407 ± 0.017
357.5 K	0.2643 ± 0.019

CC(O)CC(C)(C)O (stereo not drawn) [2-methyl-2,4-pentanediol]
Liquid
Conditions	vapor or sublimation pressure [kPa]
285.2 K	0.0025 ± 0.00018
287.9 K	0.00333 ± 0.00024
291.2 K	0.00474 ± 0.00034
294.2 K	0.00648 ± 0.00047
297.2 K	0.00858 ± 0.00062
300.2 K	0.01147 ± 0.00082
303.2 K	0.01471 ± 0.0011
306.5 K	0.01997 ± 0.0014
309.4 K	0.02565 ± 0.0018
312.5 K	0.03274 ± 0.0023
315.2 K	0.04092 ± 0.0029
318.2 K	0.05208 ± 0.0037
321.2 K	0.06475 ± 0.0046
323.3 K	0.07752 ± 0.0055
326.3 K	0.09448 ± 0.0067
329.4 K	0.1239 ± 0.0088

OCCCO [propan-1,3-diol]
Liquid
Conditions	vapor or sublimation pressure [kPa]
293.5 K	0.00186 ± 0.00014
303.2 K	0.00447 ± 0.00032
309.3 K	0.00788 ± 0.00056
312.2 K	0.00997 ± 0.00072
315.3 K	0.01329 ± 0.00095
318.4 K	0.01659 ± 0.0012
321.3 K	0.02168 ± 0.0016
324.3 K	0.02764 ± 0.002
327.3 K	0.03558 ± 0.0025
330.3 K	0.04372 ± 0.0031
333.5 K	0.05556 ± 0.004
336.4 K	0.06842 ± 0.0049
339.4 K	0.08464 ± 0.006
342.3 K	0.1053 ± 0.0075
